Results from PMC3820767, “Turning Defense into Offense: Defensin Mimetics as Novel Antibiotics Targeting Lipid II” (PLoS Pathogens, 2013).
Where two headings read alike, the source gives them in different places.

Tests used:
[1] = tested on: Caco-2; assay: Cytotoxicity by MTT assay; type: cell-based, human
[2] = tested on: Escherichia coli ATCC 25922; assay: Antibacterial killing, 96-well turbidimetric (modified vCC) assay; type: cell-based; conditions: Table S3; concentration at which 100% killing occurred, no bacterial regrowth; No = not active
Procedure: (§1) The antibacterial activity of defensin mimetics against Staphylococcus aureus ATCC 29213 and Escherichia coli 25922 was carried out in a 96-well turbidimetric assay essentially as described previously with the following modifications: bacteria were exposed for 30 min to compounds in 10 mM phosphate buffer containing 5% DMSO prior to addition of 2× Muller-Hinton medium. Bacterial growth was monitored for 12 hours and data were analyzed as described. Determination of MICs was performed by Micromyx, LLC (Kalamazoo, Michigan) according to CLSI standards.

[3] = tested on: Staphylococcus aureus ATCC 29213; assay: as above; type: cell-based; conditions: Table S3; concentration at which 100% killing occurred, no bacterial regrowth; No = not active
Procedure: as §1

[4] = Surface Plasmon Resonance binding to immobilized 3-Lipid II; conditions: Table S3; SPR, initial determination at 10 µM
Procedure: Surface Plasmon Resonance binding experiments were carried out on a BIAcore T100 system (BIAcore Inc., Piscataway, NY) at 25°C. The assay buffer was 10 mM HEPES, 150 mM NaCl, 0.05% surfactant P20, pH 7.4 (±3 mM EDTA) supplemented with 10% DMSO. […] For initial determination of binding, defensin mimetics were introduced into the flow-cells (30 µl/min) in the running buffer at 10 µM. Resonance signals were corrected for nonspecific binding by subtracting the background of the control flow-cell. After each analysis, the sensor chip surfaces were regenerated with 50 mM NaOH for 30 s at a flow rate 100 µl/min, and equilibrated with the buffer prior to next injection. For binding kinetics studies, binding isotherms were analyzed with manufacturer-supplied software for BIAcore T100.

Row | SMILES | IC50 [1] | active against E.coli (IC100%) [2] | active against S.aureus (IC100%) [3] | Binding on Lipid II? [4] | cytotoxic for Caco II (C50% survival) [1] | cytotoxic for Caco II (C50% survival) ([1]; Table S3, No = not cytotoxic) | IC50 ([1]; Table S3, No = not cytotoxic, read-out: cytotoxic for Caco II (C50% survival))
1 | Oc1ccc(O)c2c1C1c3ccccc3C2c2ccccc21 [Compound 5190620, pentacyclo[6.6.6.0^{2,7}.0^{9,14}.0^{15,20}]icosa-2(7),3,5,9,11,13,15,17,19-nonaene-3,6-diol] | 3.7 µM | No | 62,5 µM | No | – | – | –
2 | OCCSc1ccc(Cc2ccc(SCCO)cc2)cc1 [Compound 5210734, 2,2'-[methylenebis(4,1-phenylenethio)]diethanol] | – | No | No | No | No | – | –
3 | OCCSc1ccc(-c2ccc(SCCO)cc2)cc1 [Compound 5230234, 2,2'-[4,4'-biphenyldiylbis(thio)]diethanol] | – | No | No | No | – | No | –
4 | C(#Cc1ccccc1)CN(CC#Cc1ccccc1)CCCCCCN(CC#Cc1ccccc1)CC#Cc1ccccc1.Cl.Cl [Compound 5230300, N,N,N',N'-tetrakis(3-phenyl-2-propyn-1-yl)-1,6-hexanediamine dihydrochloride] | – | No | No | No | No | – | –
5 | CCCCN(CC#Cc1ccc(C#CCN(CCCC)CCCC)cc1)CCCC.Cl.Cl [Compound 5230313, 3,3'-(1,4-phenylene)bis(N,N-dibutyl-2-propyn-1-amine) dihydrochloride] | 366 µM | No | No | Yes | – | – | –
6 | Fc1ccc(N2CCN(Cc3ccc(-c4ccccc4)cc3)CC2)cc1 [Compound 5267798, 1-(4-biphenylylmethyl)-4-(4-fluorophenyl)piperazine] | – | No | No | No | No | – | –
7 | Clc1ccc(N2CCN(Cc3ccc(-c4ccccc4)cc3)CC2)cc1 [Compound 5270046, 1-(4-biphenylylmethyl)-4-(4-chlorophenyl)piperazine] | – | No | No | No | No | – | –
8 | FC(F)(F)c1cccc(N2CCN(Cc3ccc4c(c3)Cc3ccccc3-4)CC2)c1 [Compound 5418391, 1-(9H-fluoren-2-ylmethyl)-4-[3-(trifluoromethyl)phenyl]piperazine] | 159 µM | No | No | No | – | – | –
9 | FC(F)(F)c1cccc(N2CCN(CCc3ccccc3)CC2)c1 [Compound 5422765, 1-(2-phenylethyl)-4-[3-(trifluoromethyl)phenyl]piperazine] | 130 µM | No | No | Yes | – | – | –
10 | CCN(CC)c1ccc(CN2CCN(c3cccc(C(F)(F)F)c3)CC2)cc1 [Compound 5427129, N,N-diethyl-4-({4-[3-(trifluoromethyl)phenyl]-1-piperazinyl}methyl)aniline] | 192 µM | No | (No) | Yes | – | – | –
11 | CN(C)c1ccc(C=CCN2CCN(Cc3ccccc3)CC2)cc1 [Compound 5429346, 4-[3-(4-benzyl-1-piperazinyl)-1-propen-1-yl]-N,N-dimethylaniline] | 132 µM | No | 500 µM | Yes | – | – | –
12 | CCCN1CCC(NCc2cccc(C(F)(F)F)c2)CC1 [Compound 5452876, 1-propyl-N-[3-(trifluoromethyl)benzyl]-4-piperidinamine] | – | No | No | No | No | – | –
13 | Fc1ccc(N2CCN(C3CCN(Cc4ccccc4)CC3)CC2)cc1 [Compound 5457685, 1-(1-benzyl-4-piperidinyl)-4-(4-fluorophenyl)piperazine] | – | No | No | No | No | – | –
14 | CC(CCc1ccc(O)cc1)NCCc1ccccc1 (stereo not shown) [Compound 5460400, 4-{3-[(2-phenylethyl)amino]butyl}phenol] | – | No | No | No | – | No | –
15 | CC[n+]1c(/C=C/C=C2\N(C)c3ccccc3C2(C)C)sc2ccccc21.[O-][Cl+3]([O-])([O-])[O-] [Compound 5660386, 3-ethyl-2-[(1E)-3-[(2Z)-1,3,3-trimethyl-2,3-dihydro-1H-indol-2-ylidene]prop-1-en-1-yl]-1,3-benzothiazol-3-ium perchlorate] | – | 125 µM | 7,8 µM | No | – | – | 5.6 µM
16 | Cc1ccc(CN2CCC(N3CCN(c4ccccc4F)CC3)CC2)cc1 [Compound 6711103, 1-(2-fluorophenyl)-4-[1-(4-methylbenzyl)-4-piperidinyl]piperazine] | – | No | No | No | No | – | –
17 | O=C(O)C(=O)O.c1ccc(CCCN2CCC(N3CCN(c4ccccc4)CC3)CC2)cc1 [Compound 6785396, 1-phenyl-4-[1-(3-phenylpropyl)-4-piperidinyl]piperazine oxalate] | 168 µM | No | No | No | – | – | –
18 | CC(C)(O)C#Cc1ccc(C#Cc2ccc(C#CC(C)(C)O)cc2)cc1 [Compound 7191067, 4,4'-(1,2-ethynediyldi-4,1-phenylene)bis(2-methyl-3-butyn-2-ol)] | – | No | No | No | No | – | –
19 | Cc1ccc(CN2C(=O)c3ccccc3C2(O)Cc2ccccc2)cc1 (stereo not shown) [Compound 7832238, 3-benzyl-3-hydroxy-2-[(4-methylphenyl)methyl]-2,3-dihydro-1H-isoindol-1-one] | – | No | No | No | No | – | –
20 | CC(C)CCCC(C)C1CCC2C3CC=C4CC(O)CCC4(C)C3CCC12C (stereo not shown) [Compound N050-0022, 2,15-dimethyl-14-(6-methylheptan-2-yl)tetracyclo[8.7.0.0^{2,7}.0^{11,15}]heptadec-7-en-5-ol] | 123 µM | No | No | No | – | – | –
21 | O=C(CSc1nc(-c2ccccc2)c(-c2ccccc2)n1-c1ccccc1)N1CCCc2ccccc21 [ST4098270, 1-(1,2,3,4-tetrahydroquinolin-1-yl)-2-[(1,4,5-triphenyl-1H-imidazol-2-yl)sulfanyl]ethan-1-one] | – | No | No | No | No | – | –
22 | CCN1/C(=C\C=C\c2sc3c4ccccc4[se]c3[n+]2CC)Sc2c1[se]c1ccccc21 [STK368153, 3-ethyl-2-[(1E,3E)-3-(3-ethyl[1]benzoselenopheno[2,3-d][1,3]thiazol-2(3H)-ylidene)prop-1-en-1-yl][1]benzoselenopheno[2,3-d][1,3]thiazol-3-ium] | 9.6 µM | 7,8 µM | 7,8 µM | Yes | – | – | –
